Results published in PubChem BioAssay (NCI).
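These data come from cells grown in 96-well plates and exposed to compound for 48 hours at five concentrations. GI50 marks 50% less growth. The concentration for full growth arrest is given as TGI.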

How the values were obtained:
Test in all cases: DTP human tumour cell line panel, 48 h
SF-539 CNS = system: SF-539 CNS
A498 renal = system: A498 renal
PC-3 prostate = system: PC-3 prostate
TK-10 renal = system: TK-10 renal
SK-MEL-28 melanoma = system: SK-MEL-28 melanoma
SK-MEL-5 melanoma = system: SK-MEL-5 melanoma
SR leukemia = system: SR leukemia
MDA-MB-231 breast = system: MDA-MB-231 breast
HS 578T breast = system: HS 578T breast
SNB-75 CNS = system: SNB-75 CNS
SK-MEL-2 melanoma = system: SK-MEL-2 melanoma
CCRF-CEM leukemia = system: CCRF-CEM leukemia
M14 melanoma = system: M14 melanoma
UO-31 renal = system: UO-31 renal
CAKI-1 renal = system: CAKI-1 renal
K-562 leukemia = system: K-562 leukemia
ACHN renal = system: ACHN renal
EKVX NSCLC = system: EKVX NSCLC
786-0 renal = system: 786-0 renal
SK-OV-3 ovarian = system: SK-OV-3 ovarian
NCI-H23 lung = system: NCI-H23 lung
SF-268 CNS = system: SF-268 CNS
RPMI-8226 leukemia = system: RPMI-8226 leukemia
NCI-H226 lung = system: NCI-H226 lung
IGROV1 ovarian = system: IGROV1 ovarian
RXF 393 renal = system: RXF 393 renal
SN12C renal = system: SN12C renal
OVCAR-3 ovarian = system: OVCAR-3 ovarian
HOP-92 NSCLC = system: HOP-92 NSCLC
HOP-62 NSCLC = system: HOP-62 NSCLC
LOX IMVI melanoma = system: LOX IMVI melanoma
COLO 205 colon = system: COLO 205 colon
SF-295 CNS = system: SF-295 CNS
HL-60(TB) leukemia = system: HL-60(TB) leukemia
SNB-19 CNS = system: SNB-19 CNS
HT29 colon = system: HT29 colon
UACC-257 melanoma = system: UACC-257 melanoma
MALME-3M melanoma = system: MALME-3M melanoma
DU-145 prostate = system: DU-145 prostate
SW-620 colon = system: SW-620 colon
HCC-2998 colon = system: HCC-2998 colon
MCF7 breast = system: MCF7 breast
BT-549 breast = system: BT-549 breast
A549 NSCLC = system: A549 NSCLC
OVCAR-4 ovarian = system: OVCAR-4 ovarian
UACC-62 melanoma = system: UACC-62 melanoma
MOLT-4 leukemia = system: MOLT-4 leukemia
HCT-15 colon = system: HCT-15 colon
HCT-116 colon = system: HCT-116 colon
NCI-H460 lung = system: NCI-H460 lung
U251 CNS = system: U251 CNS
OVCAR-5 ovarian = system: OVCAR-5 ovarian
MDA-MB-435 = system: MDA-MB-435
NCI-H522 lung = system: NCI-H522 lung
OVCAR-8 ovarian = system: OVCAR-8 ovarian
KM12 colon = system: KM12 colon
NCI/ADR-RES ovarian = system: NCI/ADR-RES ovarian
T-47D breast = system: T-47D breast

## COc1cc2c(cc1O)CC[C@@H]1[C@@H]2CC[C@]2(C)[C@@H](NCCN(C)C)CC[C@@H]12
SF-539 CNS
  GI50: 83 nM
  TGI: 264 nM
A498 renal
  GI50: 164 nM
  TGI: 636 nM
PC-3 prostate
  GI50: 188 nM
  TGI: 599 nM
TK-10 renal
  GI50: 467 nM
  TGI: 932 nM
SK-MEL-28 melanoma
  GI50: 88.3 nM
  TGI: 262 nM
SK-MEL-5 melanoma
  GI50: 69.4 nM
  TGI: 166 nM
SR leukemia
  GI50: 98.9 nM
  TGI: 437 nM
MDA-MB-231 breast
  GI50: 97.9 nM
  TGI: 391 nM
HS 578T breast
  GI50: 277 nM
  TGI: 1100 nM
SNB-75 CNS
  GI50: 61.3 nM
  TGI: 378 nM
SK-MEL-2 melanoma
  GI50: 127 nM
  TGI: 517 nM
CCRF-CEM leukemia
  GI50: 156 nM
  TGI: 612 nM
M14 melanoma
  GI50: 82.2 nM
  TGI: 213 nM
UO-31 renal
  GI50: 430 nM
  TGI: 889 nM
CAKI-1 renal
  GI50: 464 nM
  TGI: 945 nM
K-562 leukemia
  GI50: 88.6 nM
  TGI: 395 nM
ACHN renal
  GI50: 459 nM
  TGI: 991 nM
EKVX NSCLC
  GI50: 341 nM
  TGI: 804 nM
786-0 renal
  GI50: 383 nM
  TGI: 831 nM
SK-OV-3 ovarian
  GI50: 194 nM
  TGI: 667 nM
NCI-H23 lung
  GI50: 161 nM
  TGI: 636 nM
SF-268 CNS
  GI50: 267 nM
  TGI: 753 nM
RPMI-8226 leukemia
  GI50: 159 nM
  TGI: 665 nM
NCI-H226 lung
  GI50: 698 nM
  TGI: 1590 nM
IGROV1 ovarian
  GI50: 407 nM
  TGI: 954 nM
RXF 393 renal
  GI50: 118 nM
  TGI: 480 nM
SN12C renal
  GI50: 380 nM
  TGI: 1480 nM
OVCAR-3 ovarian
  GI50: 123 nM
  TGI: 475 nM
HOP-92 NSCLC
  GI50: 124 nM
  TGI: 742 nM
HOP-62 NSCLC
  GI50: 194 nM
  TGI: 717 nM
LOX IMVI melanoma
  GI50: 110 nM
  TGI: 405 nM
COLO 205 colon
  GI50: 107 nM
  TGI: 400 nM
SF-295 CNS
  GI50: 163 nM
  TGI: 610 nM
HL-60(TB) leukemia
  GI50: 173 nM
  TGI: 675 nM
SNB-19 CNS
  GI50: 400 nM
  TGI: 966 nM
HT29 colon
  GI50: 101 nM
  TGI: 393 nM
UACC-257 melanoma
  GI50: 114 nM
  TGI: 254 nM
MALME-3M melanoma
  GI50: 190 nM
  TGI: 669 nM
DU-145 prostate
  GI50: 119 nM
  TGI: 423 nM
SW-620 colon
  GI50: 140 nM
  TGI: 556 nM
HCC-2998 colon
  GI50: 220 nM
  TGI: 716 nM
MCF7 breast
  GI50: 127 nM
  TGI: 514 nM
BT-549 breast
  GI50: 334 nM
  TGI: 858 nM
A549 NSCLC
  GI50: 300 nM
  TGI: 827 nM
OVCAR-4 ovarian
  GI50: 339 nM
  TGI: 943 nM
UACC-62 melanoma
  GI50: 99.4 nM
  TGI: 274 nM
MOLT-4 leukemia
  GI50: 187 nM
  TGI: 695 nM
HCT-15 colon
  GI50: 111 nM
  TGI: 454 nM
HCT-116 colon
  GI50: 139 nM
  TGI: 522 nM
NCI-H460 lung
  GI50: 324 nM
  TGI: 823 nM
U251 CNS
  GI50: 135 nM
  TGI: 458 nM
OVCAR-5 ovarian
  GI50: 314 nM
  TGI: 856 nM
MDA-MB-435
  GI50: 66.2 nM
  TGI: 133 nM
NCI-H522 lung
  GI50: 108 nM
  TGI: 500 nM

## NCCNc1c2c(c(NCCN)c3c(CO)c[nH]c13)C(=O)c1ccccc1C2=O
SF-539 CNS
  GI50: 3890 nM
  TGI: 39300 nM
A498 renal
  GI50: 41200 nM
  TGI: > 100000 nM
PC-3 prostate
  GI50: 20100 nM
  TGI: > 100000 nM
TK-10 renal
  GI50: 20700 nM
  TGI: 75100 nM
SK-MEL-28 melanoma
  GI50: 24500 nM
  TGI: > 100000 nM
SK-MEL-5 melanoma
  GI50: 19900 nM
  TGI: 69300 nM
MDA-MB-231 breast
  GI50: 15500 nM
  TGI: 51400 nM
HS 578T breast
  GI50: 3270 nM
  TGI: 38900 nM
SNB-75 CNS
  GI50: 24300 nM
  TGI: > 100000 nM
CCRF-CEM leukemia
  GI50: 4280 nM
  TGI: > 100000 nM
M14 melanoma
  GI50: 25300 nM
  TGI: > 100000 nM
UO-31 renal
  GI50: 80800 nM
  TGI: > 100000 nM
OVCAR-8 ovarian
  GI50: 5260 nM
  TGI: 47200 nM
K-562 leukemia
  GI50: 9540 nM
  TGI: > 100000 nM
ACHN renal
  GI50: 35900 nM
  TGI: > 100000 nM
EKVX NSCLC
  GI50: 19700 nM
  TGI: 56200 nM
786-0 renal
  GI50: 5210 nM
  TGI: > 100000 nM
SK-OV-3 ovarian
  GI50: 5960 nM
  TGI: > 100000 nM
NCI-H23 lung
  GI50: 17200 nM
  TGI: > 100000 nM
SF-268 CNS
  GI50: 795 nM
  TGI: 6420 nM
RPMI-8226 leukemia
  GI50: 31300 nM
  TGI: > 100000 nM
NCI-H226 lung
  GI50: 17900 nM
  TGI: 91600 nM
IGROV1 ovarian
  GI50: 15000 nM
  TGI: > 100000 nM
RXF 393 renal
  GI50: 5840 nM
  TGI: 34700 nM
SN12C renal
  GI50: 1590 nM
  TGI: 12800 nM
OVCAR-3 ovarian
  GI50: 1140 nM
  TGI: 30700 nM
KM12 colon
  GI50: 17300 nM
  TGI: > 100000 nM
HOP-92 NSCLC
  GI50: 24000 nM
  TGI: > 100000 nM
HOP-62 NSCLC
  GI50: 4220 nM
  TGI: > 100000 nM
LOX IMVI melanoma
  GI50: 8320 nM
  TGI: > 100000 nM
COLO 205 colon
  GI50: 8380 nM
  TGI: > 100000 nM
NCI/ADR-RES ovarian
  GI50: > 100000 nM
  TGI: > 100000 nM
SF-295 CNS
  GI50: 6160 nM
  TGI: 43800 nM
HL-60(TB) leukemia
  GI50: 43400 nM
  TGI: > 100000 nM
SNB-19 CNS
  GI50: 3340 nM
  TGI: > 100000 nM
HT29 colon
  GI50: 10600 nM
  TGI: > 100000 nM
UACC-257 melanoma
  GI50: 16800 nM
  TGI: 46000 nM
MALME-3M melanoma
  GI50: 8510 nM
  TGI: 26300 nM
DU-145 prostate
  GI50: 12000 nM
  TGI: > 100000 nM
SW-620 colon
  GI50: 8700 nM
  TGI: > 100000 nM
HCC-2998 colon
  GI50: 7140 nM
  TGI: 52300 nM
MCF7 breast
  GI50: 5590 nM
  TGI: 82000 nM
BT-549 breast
  GI50: 6720 nM
  TGI: 32000 nM
A549 NSCLC
  GI50: > 100000 nM
  TGI: > 100000 nM
OVCAR-4 ovarian
  GI50: 38300 nM
  TGI: > 100000 nM
UACC-62 melanoma
  GI50: 15200 nM
  TGI: > 100000 nM
MOLT-4 leukemia
  GI50: 3930 nM
  TGI: > 100000 nM
HCT-15 colon
  GI50: > 100000 nM
  TGI: > 100000 nM
HCT-116 colon
  GI50: 7110 nM
  TGI: > 100000 nM
T-47D breast
  GI50: 7590 nM
  TGI: > 100000 nM
NCI-H460 lung
  GI50: 25700 nM
  TGI: > 100000 nM
U251 CNS
  GI50: 2530 nM
  TGI: > 100000 nM
OVCAR-5 ovarian
  GI50: 48700 nM
  TGI: > 100000 nM
MDA-MB-435
  GI50: 28700 nM
  TGI: > 100000 nM
NCI-H522 lung
  GI50: 8130 nM
  TGI: > 100000 nM
